Holding throughout (format): cell-based
Data set [1] concerns nitric oxide production in LPS and IFN-γ-stimulated BV2 cells. Description: Nitric oxide (nitrite, Griess method) measurement in LPS and IFN-γ-stimulated BV2 cells. The conditions noted are these: 24 h; for Effect on nitrite (NO) levels versus control group: LPS and IFN-γ-stimulated BV2 cells; for IC50: Mus musculus, BV-2, LPS (500 ng/mL) and IFN-γ (5 ng/mL)-stimulated BV2 cells, 3.125–25 µM, mean ± SEM, read-out: IC50 on nitric oxide production inhibition. How it is done: (§1) To determine the NO and TNF-α levels, BV2 cells were seeded in 96-well plates (1 × 10^6 cells/mL) in RPMI medium supplemented with 10% FBS and 1% penicillin-streptomycin in a 5% CO2 incubator at 37 °C. After four hours, the cells were exposed to LPS (500 ng/mL, Sigma Aldrich) and IFN-γ (5 ng/mL, Thermo Fisher) in the absence or presence of compounds 1 to 7 at a final concentration of 12.5 µM (for NO and TNF-α measurement) or 3.125–25 µM (to calculate the IC50 values on NO production inhibition), in five replicates. Quercetin (20 µM) was used as a positive control. After 24 h, cell-free supernatants were collected for NO quantification using the Griess method or stored at −80 °C for cytokine concentration determination. The TNF-α concentrations in the BV2 cell culture supernatants were assessed via enzyme-linked immunosorbent assay (ELISA) with an Invitrogen kit (Thermo Fisher, Viena, Austria).
Background: Nitrite, measured by Griess reagent, commonly stands in for NO production.

Data set [2] can be described thus: Cell viability (MTT assay) in BV2 cells. The note with it: mouse, BV2 microglial cells, mean ± SEM (n = 5). The procedure: The cytotoxicity of compounds 1–7 was evaluated using the MTT (3-(4,5-dimethylthiazol-2-yl)-2,5-diphenyltetrazolium bromide) assay. The microglial BV2 cell line was obtained from the Rio de Janeiro Cell Bank (BCRJ), Brazil. The cells were cultured in Roswell Park Memorial Institute medium (RPMI; Sigma Aldrich, St. Louis, MO, USA) supplemented with 10% fetal bovine serum (FBS; Gibco, Grand Island, NY, USA) and 1% penicillin-streptomycin (Sigma Aldrich) at 37 °C with 5% CO2. Cells were seeded into 96-well plates at 1 × 10^5 cells/mL and incubated overnight. After that, the cells were incubated with compounds 1 to 7 (12.5, 25, or 50 μM) in five replicates for 24 h. Then, 110 μL of the supernatant were removed, and 10 μL of MTT solution (5 mg/mL) (Sigma Aldrich, St. Louis, MO, USA) were added. The plates were further incubated for four hours, followed by the addition of sodium dodecyl sulfate (SDS) (100 µL/well) to dissolve the formazan. Optical densities were measured using a spectrophotometer (BioTek Instruments microplate reader, Sinergy HT, Winooski, VT, USA) at a wavelength of 570 nm.
On the technique in general: Tetrazolium dyes change colour on reduction, which living cells bring about.

In data set [3] the test system is TNF-α release from LPS and IFN-γ-stimulated BV2 cells. Description: TNF-α measurement (ELISA) in LPS and IFN-γ-stimulated BV2 cells. The note with it: 12.5 µM, 24 h. How it is done:
as §1
A general note: An ELISA detects its analyte on a solid surface through an enzyme-linked reagent.

The term IC50 denotes the concentration that gives 50% inhibition. For orientation: viability means the share of living cells, or the viability signal relative to a control. A lower viability goes with a greater loss of cells.

Consider `O=c1c(O)c(-c2ccc(O)c(O)c2)oc2cc(O)cc(O)c12` [Quercetin, quercetin, reference compound], for which the “Effect on nitrite (NO) levels versus control group” value in data set [1] (20 µM (positive control)) is given as “significantly reduced nitrite levels”. Further, the IC50 in data set [1] was 11.8 ± 1.5 µM.
Regarding `CC(=O)OC1CC(C)(C)C2CC3OC(=O)C2(C1)c1cc(O)c(C(C)C)cc1O3` (stereo not shown) [Compound 7, Medusanthol E], in data set [2], the viability at 24 h, 12.5 µM amounted to 82.74 ± 0.62%; the viability at 24 h, 25 µM amounted to 84.9 ± 1.4%; the viability at 24 h, 50 µM stood at 81.8 ± 1.24%. Moreover, the “Effect on nitrite (NO) levels versus control group” value in data set [1] (12.5 µM) is reported as “significantly reduced nitrite levels”.
Regarding `CC(C)c1cc2c(cc1O)C1(C)CC(O)C(O)C(C)(C)C1CC2` (stereo not shown) [Compound 3, Medusanthol C], in data set [2], the viability at 24 h, 12.5 µM is 87.4 ± 2.35%; the viability at 24 h, 25 µM came out at 82.2 ± 0.96%; the viability at 24 h, 50 µM is 76.4 ± 3.14%. The “Effect on nitrite (NO) levels versus control group” value in data set [1] (12.5 µM) is listed as “significantly reduced nitrite levels”.
In data set [2], `CC(C)c1cc2c(cc1O)[C@@]1(C)C[C@@H](O)CC(C)(C)[C@@H]1CC2` [Compound 4, salviol] came in with a viability at 24 h, 12.5 µM of 92.29 ± 0.6%; a viability at 24 h, 25 µM of 85.41 ± 0.82%; a viability at 24 h, 50 µM of 73.6 ± 2.73%. In data set [1] (12.5 µM), the “Effect on nitrite (NO) levels versus control group” value is “significantly reduced nitrite levels”.
In data set [2], `CC(=O)OC1CC(C)(C)C2CCc3cc(C(C)C)c(O)cc3C2(C(=O)O)C1` (stereo not shown) [Compound 5, Medusanthol D] returned a viability at 24 h, 12.5 µM of 86.2 ± 4.53%; a viability at 24 h, 25 µM of 86.8 ± 2.52%; a viability at 24 h, 50 µM of 82.9 ± 3.63%. The “Effect on nitrite (NO) levels versus control group” value in data set [1] (12.5 µM) is reported as “No significant effect”.
Regarding `CC(C)c1cc2c(cc1O)C1(C)CC(O)C(O)C(C)(C)C1CC2=O` (stereo not shown) [Compound 2, Medusanthol B], in data set [2], the viability at 24 h, 12.5 µM amounted to 81.93 ± 0.65%; the viability at 24 h, 25 µM was 85.84 ± 0.85%; the viability at 24 h, 50 µM worked out at 75 ± 3.11%. Besides, the “Effect on nitrite (NO) levels versus control group” value in data set [1] (12.5 µM) is recorded as “significantly reduced nitrite levels”. Also, the IC50 in data set [1] turned out to be 15.5 ± 7.56 µM. Further, the “Effect on TNF-α levels versus control group” value in data set [3] was “significantly reduced TNF-α levels”.
In data set [2], `CC(C)c1cc2c(cc1O)[C@@]1(C)C[C@@H](O)CC(C)(C)[C@@H]1CC2=O` [Compound 6, 2α-hydroxysugiol] had a viability at 24 h, 12.5 µM of 85.7 ± 1.11%; a viability at 24 h, 25 µM of 81.7 ± 1.37%; a viability at 24 h, 50 µM of 66.8 ± 3.61%. The “Effect on nitrite (NO) levels versus control group” value in data set [1] (12.5 µM) was “No significant effect”.
With `CC(C)C1=CC(=O)C2=C(C1=O)C(O)CC1C2(C)CC(O)C(O)C1(C)C` (stereo not shown) [Compound 1, Medusanthol A], in data set [2], the viability at 24 h, 12.5 µM worked out at 88 ± 2.57%; the viability at 24 h, 25 µM worked out at 85.1 ± 1.54%; the viability at 24 h, 50 µM was found to be 76.3 ± 2.16%. For the same compound, the “Effect on nitrite (NO) levels versus control group” value in data set [1] (12.5 µM) was “significantly reduced nitrite levels”. Moreover, in data set [1], the IC50 was 3.12 ± 0.75 µM. In addition, the “Effect on TNF-α levels versus control group” value in data set [3] is “significantly reduced TNF-α levels”.

These data come from PMC11207065, “Abietane Diterpenes from Medusantha martiusii and Their Anti-Neuroinflammatory Activity” (Molecules, 2024).
